Measurements from article PMC7038160, “Design, Synthesis, and Evaluation of Acetylcholinesterase and Butyrylcholinesterase Dual-Target Inhibitors against Alzheimer’s Diseases” (Molecules, 2020).
Entries after “also recorded” stand apart in the source; their conditions may differ.

How the values were obtained:
[1] = molecular target: T1, AChE from Electrophorus electricus (eeAChE) (Electrophorus electricus, UniProt O42275); assay: biochemical; assay type: biochemical; settings: for AChE IR (inhibitory rate) / IC50: eeAChE from electric eel; for AChE IR (inhibitory rate): compounds under 100 μM; for SI (selectivity index = AChE IC50/BChE IC50): eeAChE IC50 / eqBChE IC50; for IC50: mean ± SEM of triplicate independent experiments
T1 construct: purchased Sigma-Aldrich
T1 sequence (O42275 24-633): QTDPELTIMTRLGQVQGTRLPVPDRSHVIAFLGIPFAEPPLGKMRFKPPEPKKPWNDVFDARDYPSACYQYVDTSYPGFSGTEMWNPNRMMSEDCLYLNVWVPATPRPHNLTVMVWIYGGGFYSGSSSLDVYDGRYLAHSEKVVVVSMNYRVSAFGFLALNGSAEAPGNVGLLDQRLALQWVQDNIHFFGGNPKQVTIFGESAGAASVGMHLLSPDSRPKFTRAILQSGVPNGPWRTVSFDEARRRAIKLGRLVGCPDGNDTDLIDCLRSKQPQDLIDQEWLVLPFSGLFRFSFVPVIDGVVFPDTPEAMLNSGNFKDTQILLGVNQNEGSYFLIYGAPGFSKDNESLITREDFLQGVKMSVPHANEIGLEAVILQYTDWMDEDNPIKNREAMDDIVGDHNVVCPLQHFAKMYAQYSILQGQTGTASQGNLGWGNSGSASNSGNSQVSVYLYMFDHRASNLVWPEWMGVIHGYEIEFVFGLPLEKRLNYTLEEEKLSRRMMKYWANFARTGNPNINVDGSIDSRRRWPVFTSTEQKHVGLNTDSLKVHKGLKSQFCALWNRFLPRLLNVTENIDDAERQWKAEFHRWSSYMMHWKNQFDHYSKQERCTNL
Experimental: (§1) According to the method described by Ellman, the data were expressed by IC50 values.
(§2) The inhibitory activity of the target compound against AChE (from Electrophorus electricus (eeAChE), Sigma-Aldrich, Munich, Germany) and horse serum BChE (eqBChE, Sigma-Aldrich, Munich, Germany) were measured by Ellman’s method. In 96-well plates, a mixture of phosphate buffer (0.1 M, pH 8.0, […]), 5,5′-dithiobis-2-nitrobenzoic acid (DTNB, 60 μL), acetylcholinesterase or butyrylcholinesterase (20 μL, 5 IU/mL) and different concentrations of the compounds solution (30 μL) was pre-incubated for 5 min and then substrates (acetylthiocholine iodide or butyrylthiocholine iodide, 20 μL) were added.
(§3) The measurement of each concentration for each compound was detected in triplicate. GraphPad Prism 6.0 (GraphPad Software, Inc., La Jolla, CA, USA) was used for data processing. The inhibition curve was fitted by plotting the logarithm of the concentration of the tested compounds with the percentage of enzyme activity (reference to 100%). The (IC50) value was calculated according to the inhibition curve and the data were shown in the layout of mean ± SEM by GraphPad Prism 6.0.

[2] = molecular target: T2, eeAChE (Electrophorus electricus, UniProt O42275); assay: Kinetics of AChE inhibition (Lineweaver–Burk plots); assay type: biochemical, Electrophorus electricus (electric eel); settings: substrate 90-904 μM
T2 construct: purchased Sigma-Aldrich
T2 sequence (O42275 24-633): as above
Experimental: (§4) To determine the kinetic types of AChE and BChE inhibition, compounds 8i and 10s were selected for kinetic studies. In each case, the kinetic types of enzyme inhibition were obtained by the modified Ellman’s method and the Lineweaver–Burk secondary plots. […] According to the result of molecular docking study.
(§5) Kinetic studies were performed in the same manner as the determination of ChEs inhibition, with substrate (ATC/BTC) concentrations of 90, 150, 226, 452 and 904 μM. The concentration of compound 8i was set to 0, 0.25, 0.5, 0.75, 1 μM, and the concentration of compound 10s was set to 1, 2.5, 5, 7.5, 10 μM. The enzymatic reaction was extended to 7 min for eeAChE and eqBChE before the determination of the absorption. The Vmax and Km values of Michaelis-Menten kinetics were calculated by nonlinear regression from the substrate-velocity curves using GraphPad Prism 6.0. Linear regression was used to fit the Lineweaver–Burk plot.

[3] = system: PC12 cells; assay: Cytotoxicity in PC12 cells (MTT assay); assay type: cell-based; settings: 10, 20, 30 and 50 μM, 24 h
Experimental: We focused on the cytotoxicity of the synthetic compounds. The reason for using PC12 is that our compounds act on the central nervous system, so we need to find out whether the compound has a toxic effect on normal nerve cells. Compounds 6b, 6c, 6d, 10s, 8i, and 10v were selected as representative compounds to assess their potential cytotoxic effects.
Pheochromocytoma-derived cell line (PC12 cells) were grown in Dulbecco’s Modified Eagle Medium (DMEM) supplemented with 10% FBS at 37 °C in a humidified atmosphere containing 5% CO2. To carry out the experiment, cells (6 × 10^3 cells/well) were seeded in 96-well plate in complete medium. […]

[4] = molecular target: T3, eqBChE (Equus caballus, UniProt P81908); assay: Kinetics of BChE inhibition (Lineweaver–Burk plots); assay type: biochemical; settings: substrate 90-904 μM
T3 construct: horse serum BChE (eqBChE, Sigma-Aldrich, Munich, Germany); purchased Sigma-Aldrich; host or cells: horse serum
T3 sequence (P81908 whole entry): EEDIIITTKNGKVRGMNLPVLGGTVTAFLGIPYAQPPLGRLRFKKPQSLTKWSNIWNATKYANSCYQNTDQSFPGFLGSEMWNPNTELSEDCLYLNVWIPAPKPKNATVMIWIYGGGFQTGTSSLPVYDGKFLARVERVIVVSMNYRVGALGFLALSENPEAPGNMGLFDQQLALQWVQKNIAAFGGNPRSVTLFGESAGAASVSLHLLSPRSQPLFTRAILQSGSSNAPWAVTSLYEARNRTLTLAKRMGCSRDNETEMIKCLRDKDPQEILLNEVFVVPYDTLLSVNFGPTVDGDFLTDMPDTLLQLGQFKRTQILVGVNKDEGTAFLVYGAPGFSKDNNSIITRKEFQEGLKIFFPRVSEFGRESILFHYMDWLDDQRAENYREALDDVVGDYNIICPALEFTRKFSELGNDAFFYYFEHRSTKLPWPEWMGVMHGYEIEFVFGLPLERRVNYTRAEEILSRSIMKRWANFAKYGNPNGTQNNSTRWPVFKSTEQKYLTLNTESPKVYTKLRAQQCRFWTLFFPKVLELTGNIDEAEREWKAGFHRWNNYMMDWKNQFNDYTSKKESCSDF
Experimental: as §4, §5

[5] = molecular target: T4, horse serum BChE (eqBChE) (Equus caballus, UniProt P81908); assay: biochemical; assay type: biochemical; settings: eqBChE from horse serum; for IC50: mean ± SEM of triplicate independent experiments; for BChE IR (inhibitory rate): compounds under 100 μM
T4 construct: horse serum BChE (eqBChE, Sigma-Aldrich, Munich, Germany); purchased Sigma-Aldrich; host or cells: horse serum
T4 sequence (P81908 whole entry): as above
Experimental: as §1, §2, §3

[6] = molecular target: T3, eqBChE; parameters: method as in earlier work; settings: lead compound from previous virtual screening; cited from earlier work

Compound	AChE IR (inhibitory rate) [1]	IC50 [5]	SI (selectivity index = AChE IC50/BChE IC50) [1]	IC50 [1]	BChE IR (inhibitory rate) [5]	further results
COc1ccc(CN2CCC(CNC(=O)c3ccc4[nH]cnc4c3)CC2)cc1 [Compound 11d]	18.81%	–	–	–	–	–
O=C1Cc2cc(C(=O)NCC3CCN(Cc4ccccc4)CC3)ccc2N1 [Compound 8i, N-((1-Benzylpiperidin-4-yl)methyl)-2-Oxoindoline-5-carboxamide]	–	0.28 ± 0.1 µM	1.39	0.39 ± 0.04 µM	–	kinetic type of AChE inhibition [2]: mixed-type inhibition; cytotoxicity compared with Tacrine [3]: lower than that of Tacrine; also recorded: less toxic than Tacrine; also recorded: lowest toxicity; kinetic type of BChE inhibition [4]: mixed-type inhibition
O=C(NCC1CCN(Cc2ccccc2)CC1)c1ccc2[nH]ccc2c1 [Compound 6a, N-((1-Benzylpiperidin-4-yl)methyl)-1H-indole-5-carboxamide]	–	31.4 ± 15.6 µM	1.66	52.1 ± 30.2 µM	–	–
O=C(NCC1CCN(Cc2ccccc2Cl)CC1)c1ccc2[nH]nnc2c1 [Compound 6g, N-((1-(2-Chlorobenzyl)piperidin-4-yl)methyl)-1H-benzo[d][1,2,3]triazole-5-carboxamide]	–	49.9 ± 37.3 µM	0.58	29.2 ± 16.4 µM	–	–
Cc1ccc(S(=O)(=O)NCC2CCN(Cc3ccc(C(F)(F)F)cc3)CC2)cc1 [Compound 10v, 4-Methyl-N-((1-(4-(trifluoromethyl)benzyl)piperidin-4-yl)methyl)benzenesulfonamide]	–	7.14 ± 5.27 µM	1.01	–	–	–
COc1ccc(CN2CCC(CNS(=O)(=O)c3ccc(C)cc3)CC2)cc1 [Compound 10u, N-((1-(4-Methoxybenzyl)piperidin-4-yl)methyl)-4-methylbenzenesulfonamide]	11.61%	–	–	–	18.31%	–
COc1ccc(CN2CCC(CNC(=O)c3ccc4[nH]nnc4c3)CC2)cc1 [Compound 6f, N-((1-(4-Methoxybenzyl)piperidin-4-yl)methyl)-1H-benzo[d][1,2,3]triazole-5-carboxamide]	43.07%	–	–	–	49.63%	–
COc1ccc(CN2CCC(CNC(=O)c3ccc4[nH]ncc4c3)CC2)cc1 [Compound 11b]	48.57%	–	–	–	–	–
O=C(CC1CCN(CCc2ccccc2)CC1)Nc1ccc2[nH]ccc2c1 [Compound 16a, N-(1H-Indol-5-yl)-2-(1-phenethylpiperidin-4-yl)acetamide]	8.61%	–	–	–	23.49%	–
O=C(NCC1CCN(Cc2ccccc2Cl)CC1)c1ccc2[nH]ccc2c1 [Compound 6b, N-((1-(2-Chlorobenzyl)piperidin-4-yl)methyl)-1H-Indole-5-carboxamide]	–	9.56 ± 4.52 µM	1.57	15 ± 6.17 µM	–	–
O=C(NCC1CCN(Cc2ccccc2)CC1)c1ccc2[nH]cnc2c1 [Compound 6d, N-((1-Benzylpiperidin-4-yl)methyl)-1H-benzo[d]imidazole-5-carboxamide]	–	2.15 ± 0.63 µM	2.23	4.8 ± 0.68 µM	–	cytotoxicity compared with Tacrine [3]: less toxic than Tacrine
O=C(CC1CCN(CCc2ccccc2Cl)CC1)Nc1ccc2[nH]cnc2c1 [Compound 16d, N-(1H-Benzo[d]imidazol-5-yl)-2-(1-(2-chlorophenethyl)piperidin-4-yl)acetamide]	8.55%	–	–	–	38.04%	–
O=C(CC1CCN(CCc2ccccc2Cl)CC1)Nc1ccc2[nH]ccc2c1 [Compound 16b, 2-(1-(2-Chlorophenethyl)piperidin-4-yl)-N-(1H-indol-5-yl)acetamide]	8.95%	–	–	–	31.21%	–
O=C1Cc2cc(C(=O)NCC3CCN(Cc4ccccc4Cl)CC3)ccc2N1 [Compound 8j, N-((1-(2-Chlorobenzyl)piperidin-4-yl)methyl)-2-Oxoindoline-5-carboxamide]	14.69%	–	–	–	22.87%	–
O=C(CC1CCN(CCc2ccccc2)CC1)Nc1ccc2[nH]cnc2c1 [Compound 16c, N-(1H-Benzo[d]imidazol-5-yl)-2-(1-phenethylpiperidin-4-yl)acetamide]	no inhibitory activity and no	–	–	–	30.59%	–
COc1ccc(CN2CCC(CNC(=O)c3ccc4c(c3)CC(=O)N4)CC2)cc1 [Compound 8k, N-((1-(4-Methoxybenzyl)piperidin-4-yl)methyl)-2-Oxoindoline-5-carboxamide]	no	–	–	–	22.26%	–
O=C(NCC1CCN(Cc2ccc(C(F)(F)F)cc2)CC1)c1ccc2[nH]nnc2c1 [Compound 6h, N-((1-(4-(Trifluoromethyl)benzyl)piperidin-4-yl)methyl)-1H-benzo[d][1,2,3]triazole-5-carboxamide]	–	–	–	40.2 ± 27.6 µM	30.71%	–
Cn1c(=O)n(C)c2cc(S(=O)(=O)NCC3CCN(Cc4ccc(F)cc4)CC3)ccc21 [Compound G801-0274]	–	–	–	–	–	IC50 [6]: 0.03 µM
Cc1ccc(S(=O)(=O)NCC2CCN(Cc3ccccc3Cl)CC2)cc1 [Compound 10t, N-((1-(2-Chlorobenzyl)piperidin-4-yl)methyl)-4-methylbenzenesulfonamide]	–	2.01 ± 0.7 µM	2.74	5.5 ± 2.56 µM	–	–
O=C(NCC1CCN(Cc2ccccc2)CC1)c1ccc2[nH]ncc2c1 [Compound 6c, N-((1-Benzylpiperidin-4-yl)methyl)-1H-indazole-5-carboxamide]	–	36.6 ± 17.5 µM	0.25	9.06 ± 2.57 µM	–	cytotoxicity compared with Tacrine [3]: less toxic than Tacrine
O=C1Cc2cc(C(=O)NCC3CCN(Cc4ccc(C(F)(F)F)cc4)CC3)ccc2N1 [Compound 8l, 2-Oxo-N-((1-(4-(trifluoromethyl)benzyl)piperidin-4-yl)methyl)indoline-5-carboxamide]	–	–	–	21.5 ± 9.37 µM	35.20%	–
Cc1ccc(S(=O)(=O)NCC2CCN(Cc3ccccc3)CC2)cc1 [Compound 10s, N-((1-Benzylpiperidin-4-yl)methyl)-4-methylbenzenesulfonamide]	–	4.1 ± 3.74 µM	1.03	4.24 ± 2.44 µM	–	kinetic type of AChE inhibition [2]: same inhibition type; cytotoxicity compared with Tacrine [3]: slightly more toxic than Tacrine; kinetic type of BChE inhibition [4]: same inhibition type
O=C(NCC1CCN(Cc2ccc(C(F)(F)F)cc2)CC1)c1ccc2[nH]cnc2c1 [Compound 6e, N-((1-(4-(Trifluoromethyl)benzyl)piperidin-4-yl)methyl)-1H-benzo[d]imidazole-5-carboxamide]	–	–	–	48.5 ± 36.2 µM	39.88%	–
